Laboratory results: patent publication US5266570A, “Piperidine derivatives, compositions and use” (Imperial Chemical Industries PLC, priority 1991, dated 1993)

Tests used:
[1] = test system: apomorphine-induced climbing and apomorphine-induced disruption of swimming; assay: TEST B: antagonism of apomorphine-induced climbing and apomorphine-induced disruption of swimming; type: in vivo, mouse (female Swiss-Webster mice); conditions: Mus musculus; mice, oral, 30 min before apomorphine HCl 1.25 mg/kg sc; typical values; read-out: minimum effective dose (decrease in climbing score accompanied by increase in swimming score)
Protocol: (§1) The compounds of Formula I are antagonists of dopamine D-2 receptors, and as such are predicted to be useful as antipsychotic drugs. D-2 antagonism can be shown by standard tests such as antagonism of [^3 H]-spiperone binding (Test A), and/or antagonism of apomorphine-induced climbing and apomorphine-induced disruption of swimming (Test B).
Female Swiss-Webster mice weighing approximately 20 g were deprived of food for approximately 24 h and then dosed orally with various doses of either the vehicle or test agent over a range of doses (N=20 mice per treatment group). Thirty minutes later they were dosed with apomorphine HCl at 1.25 mg/kg, sc, and placed into climbing cages. The climbing cages were 9 cm wide, 15 cm deep and 30 cm high. One wall had 27 horizontal rungs spaced 1 cm apart. Thirteen minutes after apomorphine each mouse was observed continuously for 1 min and the highest and lowest rung reached by its front paws was recorded. […] (The highest and lowest scores were 27 and 0, respectively.) Immediately after the 1-min climbing observation period each mouse was placed into a circular swimming tank for 2 min and the number of swims was counted. […] A "swim" was scored each time a mouse swam from one mark to the other. The mice were observed through overhead mirrors and the number of 180 degree swims was recorded for each mouse. […]

[2] = molecular target: T1, dopamine (DA) D-2 receptor (Rattus norvegicus, UniProt P61169); assay: TEST A: [3H]-spiperone binding, dopamine (DA) D-2 receptor, rat striatal membranes; conditions: 0.5 nM [3H] spiperone, 40 nM ketanserin, pH 7.7, 37° C., 15 min, typical values, read-out: IC50 (drug concentration which produced a 50% displacement) for the displacement of [3H] spiperone
T1 construct: Specifically, rat striatal membranes were used; from tissue; host or cells: rat striatum (membranes)
T1 sequence (P61169 whole entry): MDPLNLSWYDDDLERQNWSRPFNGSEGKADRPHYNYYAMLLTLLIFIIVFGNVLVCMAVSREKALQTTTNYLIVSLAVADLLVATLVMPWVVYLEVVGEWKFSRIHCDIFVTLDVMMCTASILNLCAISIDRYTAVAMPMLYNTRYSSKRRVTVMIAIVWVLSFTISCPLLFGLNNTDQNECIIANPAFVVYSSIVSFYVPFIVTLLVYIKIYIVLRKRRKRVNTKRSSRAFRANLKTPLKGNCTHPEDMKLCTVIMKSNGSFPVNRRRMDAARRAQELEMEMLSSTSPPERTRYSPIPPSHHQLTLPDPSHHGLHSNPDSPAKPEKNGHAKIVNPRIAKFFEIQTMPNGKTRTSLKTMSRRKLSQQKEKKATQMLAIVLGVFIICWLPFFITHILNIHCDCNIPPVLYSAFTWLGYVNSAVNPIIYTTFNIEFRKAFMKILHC
Source text: as §1
The receptor binding assay used to measure affinities of various compounds for the dopamine (DA) D-2 receptor subtype was that described by Saller and Salama in J Pharmacol Exp Ther 236, page 714, 1986.
Specifically, rat striatal membranes were used. Tissue membranes were prepared and washed once in 50 volumes of the appropriate Tris HCl buffer. For the D-2 receptor binding assay, striatal membranes were suspended to a final concentration of 8 mg/ml in 50 mM Tris HCl with 40 nM ketanserin, pH 7.7. Nonspecific binding to D-2 receptors was measured in the presence of 1.0 μM (+)-butaclamol. IC50 s (drug concentration which produced a 50% displacement) for the displacement of 0.5 nM [^3 H] spiperone were determined using at least five concentrations of each drug in triplicate. One-half milliliter of membrane suspension was incubated with the compound of interest or vehicle or nonspecific drug, ligand and appropriate Tris HCl buffer. […] The amount of drug bound to the membranes was assessed using liquid scintillation counting techniques. […]

SMILES	minimal effective dose [1] [mg/kg]	IC50 [2] [nM]
CCOCC(=O)NC1CCN(C[C@@]23C[C@@H](c4ccccc42)c2ccc(Cl)cc23)CC1 [Example 1, N-(1-[(9S,10S)-(+)-2-Chloro-9,10-dihydro-9,10-methanoanthracen-9-ylmethyl]-4-piperidyl)-2-ethoxyacetamide]	2.5	9
CCC(=O)NC1CCN(CC23CC(c4ccccc42)c2ccc(Cl)cc23)CC1 (stereo not shown) [Example 24, N-(1-[2-Chloro-9,10-dihydro-9,10-methanoanthracen-9-ylmethyl]-4-piperidyl)propionamide]	40	146
